Test results: patent US11400063B2, “Early administration of low-dose colchicine after myocardial infarction” (INSTITUT DE CARDIOLOGIE DE MONTREAL, priority 2019, dated 2022)

System: patients recruited within 30 days after a myocardial infarction
Test: COLCOT time-to-treatment initiation (TTI) analysis
Format: in vivo, human
Details: for All Coronary Revascularizations, HR (95% CI) / All-cause death, HR (95% CI) / MI, HR (95% CI) / Primary composite endpoint, HR (95% CI) / Resuscitated cardiac arrest, HR (95% CI) / Secondary Composite Endpoint, HR (95% CI) / Stroke, HR (95% CI) / Urgent hospitalization for angina requiring coronary revascularization, HR (95% CI): colchicine vs. placebo
Protocol: (§1) The results of the COLCOT trial have been further analyzed to determine if time to treatment initiation (TTI) had any effect on the outcome of the treatment. Three different cutoffs for TTI were used in order to determine the association between early initiation of therapy and clinical outcomes. These cutoffs were determined based on the usual journey of patients with MI. The first 30-day post-MI timeline was divided into three independent periods of time, and analyzed as such: from day 0 to 3, referring to in-hospital management; from day 4 to 7, referring to early post-discharge period and from day 8 to 30, referring to late post-discharge period.
COLCOT was an international multicenter, randomized, double-blinded trial that randomly assigned patients to receive either low-dose colchicine (0.5 mg once daily) or placebo. The study protocol and main results have been published (see, Tardif et al., N Engl J Med 2019). […] Main exclusion criteria were severe heart failure, reduced left ventricular ejection fraction (<35%), recent stroke (<3 months), type 2 MI, recent (<3 years) or planned coronary artery bypass graft (CABG), history of cancer (<3 years), and inflammatory bowel disease or chronic diarrhea. All patients enrolled in the trial benefited from percutaneous coronary intervention whenever indicated and guidelines-directed management of CV disease prior to randomization (see. Tardif et al., N Engl J Med 2019).
The primary efficacy endpoint was a composite of CV death, resuscitated cardiac arrest, MI, stroke, or urgent hospitalization for angina requiring coronary revascularization. The secondary endpoints consisted of the components of the primary efficacy endpoint, all-cause death, and a composite of CV death, resuscitated cardiac arrest, MI, or stroke. Exploratory endpoints included all coronary revascularizations, including both elective and urgent coronary revascularizations.
as §1, with “Three” for “The results of the COLCOT trial have been further analyzed to determine if time to treatment initiation (TTI) had any effect on the outcome of the treatment. Three”
Both the TTI of less than 4 days and the TTI of less than 5 days was were calculated using a basic model (Table 4 and Table 6) as well as an adjusted model (Table 5 and Table 7) which is described below in the statistical analysis section. In all cases, the interaction p-value was not significant (p>0.05), meaning that the conclusion over Placebo vs. Colchicine group can be obtained directly from the respective p-values for HR. In other words, relationships within the placebo and colchicine groups with TTI are both linear/parallel and the interpretation is straightforward.
For the present TTI analysis, the data were centrally analyzed by an independent academic biostatistics center at the Montreal Health Innovations Coordinating Center. The analysis was conducted amongst patients who received at least one dose of the study medication (referred to as the safety population in the main protocol, FIG. 1). TTI was defined as the length of time in days between the index MI and the initiation of the study medication, and three specific cutoffs were analyzed ([…], days 4 to […]). Early initiation of therapy was defined as TTI≤3 days. Baseline characteristics were summarized using counts and percentages for categorical variables and mean±standard deviation (SD) for continuous variables. For each baseline characteristic, comparisons were made using ANOVA for continuous variables and Chi-Square test for categorical variables according to TTI strata. […]

[1] = TTI 0-3 days, listed as colchicine

With `COc1cc2c(c(OC)c1OC)-c1ccc(OC)c(=O)cc1[C@@H](NC(C)=O)CC2` [Colchicine, colchicine] the “All Coronary Revascularizations, % of patients” value (TTI 0-3 days, N = 1193) was 5.5%, the “All Coronary Revascularizations, no. of patients” value (TTI 0-3 days, N = 1193) was 33 no and the “All-cause death, % of patients” value (TTI 0-3 days, N = 1193) was 1.0%. For the same compound, the “All-cause death, no. of patients” value (TTI 0-3 days, N = 1193) was 6 no, the “MI, % of patients” value (TTI 0-3 days, N = 1193) was 2.8% and the “MI, no. of patients” value (TTI 0-3 days, N = 1193) was 17 no. For the same compound, the “Primary composite endpoint, % of patients” value (TTI 0-3 days, N = 1193) was 4.3%, the “Primary composite endpoint, no. of patients” value (TTI 0-3 days, N = 1193) was 26 no and the “Resuscitated cardiac arrest, % of patients” value (TTI 0-3 days, N = 1193) was 0.2%. For the same compound, the “Resuscitated cardiac arrest, no. of patients” value (TTI 0-3 days, N = 1193) was 1 no, the “Secondary Composite Endpoint, % of patients” value (TTI 0-3 days, N = 1193) was 3.3% and the “Stroke, % of patients” value (TTI 0-3 days, N = 1193) was 0.2%. The “Stroke, no. of patients” value (TTI 0-3 days, N = 1193) was 1 no, the “Urgent hospitalization for angina requiring coronary revascularization, % of patients” value (TTI 0-3 days, N = 1193) was 1% and the “Urgent hospitalization for angina requiring coronary revascularization, no. of patients” value (TTI 0-3 days, N = 1193) was 6 no. For the same compound, the “Secondary Composite Endpoint, no. of patients” value (TTI 0-3 days, N = 1193, CV death, resuscitated cardiac arrest, MI or stroke) was 20 no, the “All Coronary Revascularizations, HR (95% CI)” value (TTI 0-3 days) was 0.63 (0.40-0.97); p = 0.037 and the “All-cause death, HR (95% CI)” value (TTI 0-3 days) was 1.03 (0.33-3.19); p = 0.962. The “MI, HR (95% CI)” value (TTI 0-3 days) was 0.58 (0.32-1.05); p = 0.071, the “Primary composite endpoint, HR (95% CI)” value (TTI 0-3 days) was 0.52 (0.32-0.84); p = 0.007 and the “Resuscitated cardiac arrest, HR (95% CI)” value (TTI 0-3 days) was 0.33 (0.03-3.20); p = 0.340. For the same compound, the “Secondary Composite Endpoint, HR (95% CI)” value (TTI 0-3 days) was 0.55 (0.32-0.95); p = 0.031, the “Stroke, HR (95% CI)” value (TTI 0-3 days) was 0.21 (0.02-1.81); p = 0.156 and the “Urgent hospitalization for angina requiring coronary revascularization, HR (95% CI)” value (TTI 0-3 days) was 0.35 (0.14-0.88); p = 0.026. The “All Coronary Revascularizations, HR (95% CI)” value [1] was 0.63, the “All-cause death, HR (95% CI)” value [1] was 1.03 and the “MI, HR (95% CI)” value [1] was 0.58. The “Primary composite endpoint, HR (95% CI)” value [1] was 0.52, the “Resuscitated cardiac arrest, HR (95% CI)” value [1] was 0.33 and the “Secondary Composite Endpoint, HR (95% CI)” value [1] was 0.55. The “Stroke, HR (95% CI)” value [1] was 0.21, the “Urgent hospitalization for angina requiring coronary revascularization, HR (95% CI)” value [1] was 0.35 and the “All Coronary Revascularizations, % of patients” value (TTI 4-7 days, N = 720) was 6.9%. For the same compound, the “All Coronary Revascularizations, no. of patients” value (TTI 4-7 days, N = 720) was 25 no, the “All-cause death, % of patients” value (TTI 4-7 days, N = 720) was 2.2% and the “All-cause death, no. of patients” value (TTI 4-7 days, N = 720) was 8 no. For the same compound, the “MI, % of patients” value (TTI 4-7 days, N = 720) was 4.4%, the “MI, no. of patients” value (TTI 4-7 days, N = 720) was 16 no and the “Primary composite endpoint, % of patients” value (TTI 4-7 days, N = 720) was 6.0%. The “Primary composite endpoint, no. of patients” value (TTI 4-7 days, N = 720) was 22 no, the “Resuscitated cardiac arrest, % of patients” value (TTI 4-7 days, N = 720) was 0.5% and the “Resuscitated cardiac arrest, no. of patients” value (TTI 4-7 days, N = 720) was 2 no. The “Secondary Composite Endpoint, % of patients” value (TTI 4-7 days, N = 720) was 4.9%, the “Secondary Composite Endpoint, no. of patients” value (TTI 4-7 days, N = 720) was 18 no and the “Stroke, % of patients” value (TTI 4-7 days, N = 720) was 0.3%. The “Stroke, no. of patients” value (TTI 4-7 days, N = 720) was 1 no, the “Urgent hospitalization for angina requiring coronary revascularization, % of patients” value (TTI 4-7 days, N = 720) was 1.1% and the “Urgent hospitalization for angina requiring coronary revascularization, no. of patients” value (TTI 4-7 days, N = 720) was 4 no. The “All Coronary Revascularizations, HR (95% CI)” value (TTI 4-7 days) was 1.41 (0.76-2.61); p = 0.275, the “All-cause death, HR (95% CI)” value (TTI 4-7 days) was 1.03 (0.37-2.84); p = 0.957 and the “MI, HR (95% CI)” value (TTI 4-7 days) was 1.67 (0.74-3.78); p = 0.218. The “Primary composite endpoint, HR (95% CI)” value (TTI 4-7 days) was 0.96 (0.53-1.75); p = 0.896 and the “Resuscitated cardiac arrest, HR (95% CI)” value (TTI 4-7 days) was 1.90 (0.17-20.95); p = 0.600.
